In patent publication US20090062400A1 (priority 2007, published 2009):

Assays:
[1] = double-blind, placebo-controlled trial; cited from earlier work
[2] = rats
Procedure: Rats were sacrificed 2-3 hours after last administration. According to preliminary experiment, in order to obtain enough substance for MAO and protein analysis, 4 retinas (from 2 rats) were combined into one sample, (3 retina samples for MAO per each dose groups). The 6 brains and 6 livers were analyzed separately.

[3] = tested on: retinal ganglion cells (RGCs); details: Lewis rats, subcutaneous injection, single or repeated (treatment and prevention protocols)
retinal ganglion cells [4] = details: rats, rasagiline in the drinking water
Description: Chronic, moderately elevated IOP is produced unilaterally by cautery of three episcleral vessels; the contralateral eye served as the control. To perform the cautery, sutures are placed in the lids to keep the eye open and in the bulbar conjunctiva to manipulate the globe. Three of the four to five major trunks formed by limbal-derived veins are exposed at the equator of the eye by incising the conjunctiva. Each vessel is lifted with a small muscle hook and cauterized by direct application of an ophthalmic, disposable cautery against the muscle hook. Immediate retraction and absence of bleeding of the cauterized ends of the vessels are noted as successful cauterization. After surgery, eyes are treated topically with bacitracin-neomycin-polymyxin for a few days during recovery.
One group is treated with rasagiline, in the drinking water, for a period of time. Another group is not treated with rasagiline, but receives drinking water on the same schedule. Once a month, each animal is anesthetized and IOP is determined bilaterally. The animals are awake within 15 minutes of the IOP measurement. On any given eye, three to five tonometer readings are taken and averaged. […]
Labeled retinal ganglion cells are counted using fluorescence microscopy in 12 fields of the retina.

retinal ganglion cells [5] = details: adult rats, rasagiline before intravitreal SSP
Procedure: The effect of rasagiline on RGC survival is tested in a rat model of RGC survival.
In this well-established model it is used to induce apoptosis of retinal ganglion cells.
Adult rats are used in all rat experiments.
Rats receive a dose of intravitreal SSP in PBS. Animals are imaged immediately and up to 6 h, after which they are sacrificed for histology.
To examine the effect of rasagiline on the survival of RGCs, one group of rats are treated with rasagiline for a period of time before SSP. A further group of naïve rats receives no rasagiline.
The animal is positioned before the cLSO so that the interior of the eye is imaged. An Argon laser wavelength of 488 nm is focused into a small spot and scanned across the retina by a pair of mirrors to excite the administered annexin 5-bound fluorophore. The fluorescence is detected by a solid-state photodetector.
For imaging, animals are held in a stereotaxic frame and their pupils dilated. Videos of scanned retinal areas are assessed for fluorescence. All animals have baseline images recorded before receiving intravitreal injections of Alexa Fluor 488-labeled annexin-5. […]
Fluorescent retinas are assessed by using a confocal laser scanning microscope.
The number of stained RGC and annexin 5-labeled apoptotic RGCs are counted with microscopy analysis software.

retinal ganglion cells [6] = details: Wistar rats, 0.5 and 3 mg/kg IP once daily, 6 weeks
Procedure: Male Wistar rats weighing 375-400 gm are treated under procedures approved and monitored by the Animal Care Committee of the Tel-Aviv University School of Medicine and following the procedures outlined in the Association for Research in Vision and Opthalmology Statement for the use of animals in ophthalmic and vision research. Animals are housed with a 14 hour light/10 hour dark cycle with standard chow and water ad libitum.
Glaucoma is induced in one eye of rats by using the translimbal laser photocoagulation model developed by Levkovitch-Verbin. This model can produce elevated IOP and typical glaucomatous optic nerve damage in most treated eyes.
In this model, the outflow channels of the rat eye are treated by argon laser at 532 nm. […] IOP is measured with Tonopen XL under the above anaesthesia in both eyes before and immediately after laser treatment and weekly thereafter. Each time ten measurements are obtained on each eye and the mean value is calculated. […]
The volume of administration is 2 ml/kg. […] (calculated for a rat weighing 400 g). […]
Thirty-two (32) images of ×40 magnification from each retina (both eyes for each rat) are photographed using a fluorescent microscope, and the number of surviving retinal ganglion cells are counted for each eye. The number of RGCs in the experimental eye are compared to the fellow control eye to calculated the RGC loss. […]

[7] = tested on: retinal ganglion cells (RGCs); details: Long Evans rats, IP 30 minutes before and 2 hours after ischemia, then once daily
Procedure: Thirty (30) male pigmented rats (Long Evans) are obtained and divided evenly into 3 groups, (2 test groups and 1 control group) 10 animals in each group. Retinal ischemia is induced by a 100/200-mmHg hyperpressure saline column applied to the eye through a needle for 60 minutes.
For the control group, the vehicle (saline solution) is administered IP 30 minutes before ischemia and 2 hours after ischemia.
Electroretinographic (ERG) measurements of a- and b-wave implicit times and peak amplitudes under scotopic conditions at maximal intensity are taken at baseline (just before ischemia), and 4-7 days after reperfusion.
Sampling of fixed flatmount retinas and histological processing for annexin-5 labeling or TUNEL labeling.

[8] = patients with glaucomatous optic neuropathy, vs placebo
[9] = rasagiline alone; cited from earlier work
[10] = retinal degeneration slow mouse; cited from earlier work

## C#CCN(C)[C@H](C)Cc1ccccc1 [Selegiline]
[1]
  effectiveness in treating ALS: ineffective

## C#CCN[C@@H]1CCc2ccccc21 [Rasagiline, R(+)—N-propargyl-1-aminoindan]
[2]; preliminary test performed for 2 days, eye drops
  irritation to the eye: did not cause irritation to the eye
[2]; eye drops 0.0165-7.9 mg/kg/day, 10 days
  absorption after intraocular administration: absorbed in all doses
[3]
  effect in the IOP model (RGC survival): positive effect
Retinal ganglion cells [4]
  effect in the chronic, moderately elevated IOP model (RGC survival): positive effect
Retinal ganglion cells [5]
  effect in the SSP model (RGC apoptosis): positive effect
Retinal ganglion cells [6]
  effect in the experimental glaucoma model: positive effect
  ganglion survival in the treated group: More ganglion survival
[7]
  recovery of the retinal electric activity and/or number of apoptotic RGCs after transient ischemia: positive effect
[8]
  atrophy of the optic nerve: reduced atrophy
  preservation of the retina and of the structural integrity of the optic nerve: increased preservation
  protection against loss of RGCs: increased protection
  visual field loss: reduced visual field loss
[9]
  effectiveness in the ALS mouse model: effective treatment

## C[C@]12C=CC(=O)C=C1CC[C@@H]1[C@@H]2[C@@H](O)C[C@@]2(C)[C@H]1CC[C@]2(O)C(=O)CO [prednisolone]
[10]
  effect on retinal degeneration: unsuccessful
